Test results reported in PMC7023430, “4-Aminobenzoic Acid Derivatives: Converting Folate Precursor to Antimicrobial and Cytotoxic Agents” (Biomolecules, 2019).
In brackets after ≈: the same amount, converted by molar mass. Read-outs that look alike come from different tables or passages of the source.

Experiments:
[1] = system: Staphylococcus aureus ATCC 29213, CCM 4223; assay: Antibacterial microdilution broth method, S. aureus; assay type: cell-based
[2] = system: Mycobacterium tuberculosis H37Rv (331/88); assay: Antimycobacterial micromethod in Šula's medium, M. tuberculosis; assay type: cell-based
[3] = system: Candida albicans ATCC 44859; assay: Antifungal microdilution broth method, C. albicans; assay type: cell-based
Method in brief: (§1)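 MIC by visual endpoint reading after twofold serial dilution of DMSO-dissolved compounds in RPMI-1640 (L-glutamine, 2% glucose, pH 7.0 with MOPS). Method follows EUCAST instructions, slightly modified; duplicates required agreement within one dilution step.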

[4] = system: Aspergillus fumigatus 231; assay: Antifungal microdilution broth method, A. fumigatus; assay type: cell-based
Method in brief: as §1

[5] = system: HepG2 cells; assay: Cytotoxicity, CellTiter 96 assay; assay type: cell-based, human; conditions: Homo sapiens, HepG2, 24 h, 24 h incubation
Method: HepG2, human hepatocellular carcinoma cells (ATCC HB-8065; passage 5–8) purchased from Health Protection Agency Culture Collections (ECACC, Salisbury, UK) were cultured in Minimum Essentials Eagle Medium supplemented with 10% fetal bovine serum, 1% L-glutamine solution and non-essential amino acid solution (Sigma-Aldrich, St. Louis, MO, USA) in a humidified atmosphere containing 5% CO2 at 37 °C. For subculturing, the cells were harvested after trypsin/EDTA (Sigma-Aldrich, St. Louis, USA) treatment at 37 °C. To evaluate cytotoxicity, the cells treated with the tested substances were used as experimental groups whereas untreated HepG2 cells served as control groups.
The cells were seeded in a density of 10 000 cells per well in a 96-well plate. The following day the cells were treated with each of the tested substances dissolved in DMSO (maximal incubation concentration of DMSO was 1% v/v). The tested substances were prepared at different incubation concentrations in triplicates according to their solubility. Simultaneously, the controls representing 100% cell viability, 0% cell viability (the cells treated with 10% DMSO), no cell control and vehiculum controls were also involved in triplicates. After 24 h incubation in a humidified atmosphere containing 5% CO2 at 37 °C, the reagent from the kit CellTiter 96 AQueous One Solution Cell Proliferation Assay (CellTiter 96; Promega, Fitchburg, WI, USA) was added. After 2 h incubation at 37 °C absorbance of samples was recorded at 490 nm (TECAN, Infinita M200, Grödig, Austria). A standard toxicological parameter IC50 was calculated by nonlinear regression from a semilogarithmic plot of incubation concentration versus percentage of absorbance relative to untreated controls using GraphPad Prism software (version 6; GraphPad Software, Inc., La Jolla, CA, USA).
The CellTiter 96 assay used is based on the reduction of tetrazolium dye in living cells to formazan, which is then determined colorimetrically. This reduction is related to availability of NADH or NADPH. The decline in levels of these metabolically important compounds in the cell causes that the production of formazan is reduced. For quantitative comparison of cytotoxicity, the parameter IC50 was used.

[6] = system: four Gram-positive and four Gram-negative strains; assay: Antibacterial activity; assay type: cell-based; conditions: statement over the bacterial panel; time not stated
[7] = system: Mtb. 331/88 and three non-tuberculous mycobacterial strains; assay: Antimycobacterial activity; assay type: cell-based; conditions: statement over four mycobacterial strains; time not stated
[8] = system: eight fungal strains; assay: Antifungal activity; assay type: cell-based; conditions: statement over the fungal panel; time not stated
Method in brief: as §1

O=C(O)c1ccc(NCc2ccccc2O)cc1 [1u, 4-[(2-Hydroxybenzyl)amino]benzoic acid]
MIC ([1]; 24 h incubation, read-out: MIC SA 24 h): > 500 µM | MIC ([1]; 48 h incubation, read-out: MIC SA 48 h): > 500 µM | MIC ([2]; 336 h, 14 days incubation at 37 °C, read-out: MIC Mtb. 331/88 14 d): 1000 µM (≈ 243 µg/mL) | MIC ([2]; 504 h, 21 days incubation at 37 °C, read-out: MIC Mtb. 331/88 21 d): 1000 µM (≈ 243 µg/mL) | MIC ([3]; ATCC44859, 24 h, read-out: MIC CA 24 h): > 500 µM | MIC ([3]; ATCC44859, 48 h, read-out: MIC CA 48 h): > 500 µM | MIC ([4]; 24 h, read-out: MIC AF 24 h): > 500 µM | MIC ([4]; 48 h, read-out: MIC AF 48 h): > 500 µM | IC50 [5]: > 500 µM | MIC, antibacterial activity [6]: avoided any antibacterial action | MIC, antimycobacterial activity [7]: only negligible antimycobacterial activity | MIC, antifungal activity [8]: no antimycotic potency
